For data set [1], the system named is B. cereus membranes. Put plainly: DiSC(3)5 membrane depolarization assay. The data set is classed as cell-based. To be noted: B. cereus 2 × 10^7 CFU/mL; 10 mM NaPO4 pH 7.4; 33 μM P4LC and Pep-4, 126 μM Pep-4/LVFX, 93 μM LVFX; melittin 33 μM = maximal; monitored 30 min; triplicate. On the procedure:
(§1) Enumerated frozen aliquots of E. coli and B. cereus cells were thawed and washed 3x with buffer (10 mM NaPO4, pH 7.4). The washed cells were diluted in 10 mM NaPO4 buffer containing 10 ug/mL DiSC(3)5 to afford a concentration of 4 × 10^7 CFU/mL. Bacterial suspension was added to the wells of a black polypropylene microtiter plate (Greiner Bio-One) in 100 μL aliquots, and fluorescence was monitored (rt, with lid on) using a SpectraMax Gemini EM plate-reading fluorometer (622 nmex/ 670 nmem) until fluorescence quenching stabilized and maximal DiSC(3)5 uptake was achieved. […] The final concentrations of each assessed compound in the wells were 33 μM (P4LC and Pep-4), 126 μM (Pep-4/LVFX), and 93 μM (LVFX), while final bacterial concentrations were 2 × 10^7 CFU/mL. Assays were performed in triplicate for each compound assessed. […] The fluorescence kinetics data sets were normalized by setting emitted fluorescence to 0 at t = 0 s and presenting fluorescence intensity values as a fraction of maximal fluorescence observed for melittin.
(§2) For membrane depolarization and perturbation experiments, fluorescence data was analyzed by comparing best-fit curves (GraphPad Prism). Fluorescence kinetic curves were fit to a polynomial regression model (equation 4) to allow for statistical comparison of the fluorescence data via an F test, with all four best-fit parameters used as criteria. […]

Data set [2] relates to E. coli membranes. Description: DiSC(3)5 membrane depolarization assay. The data set is classed as cell-based. To be noted: E. coli 2 × 10^7 CFU/mL; 10 mM NaPO4 pH 7.4; 33 μM P4LC and Pep-4, 126 μM Pep-4/LVFX, 93 μM LVFX; melittin 33 μM = maximal; monitored 30 min; triplicate. As for the experimental part: as §1, §2
Data set [3] has as its system B. cereus membranes. Description: SYTOX green membrane perturbation assay. The class given is cell-based. Conditions: 10 mM NaPO4 pH 7.4, 33 μM P4LC, 33 μM Pep-4, 126 μM Pep-4/LVFX, 93 μM LVFX, melittin = maximal, biological triplicates. On the procedure:
(§3) Enumerated frozen aliquots of E. coli and B. cereus cells were thawed and washed 3x with buffer (10 mM NaPO4, pH 7.4). The washed cells were diluted to a concentration of 4 × 10^7 CFU/mL in 10 mM NaPO4 (pH 7.4) buffer containing 5 μM SYTOX Green, and the resulting suspension then stored in the dark for ~20 min. The bacterial suspension was then distributed in 100 μL aliquots to wells of a black polypropylene microtiter plate (Greiner Bio-One). […] The fluorescence of each well was immediately monitored (without the lid) using a SpectraMax Gemini EM plate-reading fluorometer (485/520 nmem). […] A negative control containing only bacteria and SYTOX Green was used to determine background fluorescence, and maximal perturbation of the bacterial cell membranes was established using melittin. The fluorescence kinetics data sets were normalized by setting emitted fluorescence to 0 at t = 0 s and presenting fluorescence intensity values as a fraction of maximal fluorescence observed for melittin.
as §2

In data set [4] the test system is E. coli membranes. Put plainly: SYTOX green membrane perturbation assay. The class given is cell-based. Conditions: 10 mM NaPO4 pH 7.4, 33 μM P4LC, 33 μM Pep-4, 126 μM Pep-4/LVFX, 93 μM LVFX, biological triplicates. On the procedure: as §3, §2
A short description of data set [5]: Distribution coefficient (1-octanol / 10 mM NaPO4 pH 7.4). Conditions: for logD at 10 min: pH 7.4. On the procedure: In these experiments, P4LC, Pep-4 or free LVFX dissolved in 100 μL of 10 mM NaPO4 (pH 7.4) buffer was combined with 100 μL of 1-Octanol in a 1.5 mL low binding polypropylene microcentrifuge tube (Corning). Each tube was vortexed for 10 min and the contained solvent allowed to settle. […] The maximal concentrations of Pep-4 and P4LC in the calibration curves were also established using amino acid analysis (UC Davis Genome Center Proteomics Core Facility). […] Indolicidin and melittin were used as reference peptides in these studies. […] The D7.4 values generated for P4LC, Pep-4, LVFX, indolicidin, and melittin were calculated (equation 5) based on their respective concentrations in the aqueous phase ([peptide]PO4buffer) of the water/octanol biphasic system and their concentrations in the initial stock solution ([peptide]total). Values are averaged from six replicates.
(5) logD7.4=log(([peptide]total−[peptide]PO4buffer)/([peptide]PO4buffer)) =log ([peptide]octanol/[peptide]PO4buffer)
The concentration ratios of each compound between the two liquid phases were used to establish distribution coefficients (D7.4). Indolicidin and melittin were used as reference peptides in these studies.

Data set [6] relates to B. cereus (#11778).
Procedure: (§4) Frozen enumerated aliquots of bacteria were thawed and diluted into sterile buffer to a bacterial concentration of 2 × 10^6 CFU/mL. Wells of a 96-well polypropylene microtiter plate (Greiner Bio-One) were charged with 50 μL aliquots of buffer solutions containing serially diluted peptide, conjugate, or drug followed by 50 μL aliquots of diluted bacterial cells. Assays for each compound were prepared in triplicate. Control wells were prepared where the peptide/conjugate/drug solution was replaced with an equal volume of buffer alone. Following addition of bacteria, the microtiter plates were incubated for 3 h at either 37°C (E. coli) or 30°C (B. cereus). […] Plates were then immediately placed in a SpectraMax Gemini EM plate-reading fluorometer for overnight monitoring of fluorescence (530 nmex/590 nmem) at either 37°C (E. coli) or 30°C (B. cereus) with intermittent shaking. Onset time of half maximal fluorescence (T0.5) observed for each well was computed using the microplate data analysis software. In order to determine bacterial survival, it was necessary to establish correlations between bacterial concentration (CFU/mL) and T0.5 values. Therefore, standard curve equations were generated in preliminary experiments using bacterial suspensions serially diluted (~10^6 CFU/mL—10^3 CFU/mL) in each of the three buffers used in the antibacterial assays.
(§5) (2) log(CFU/mLB.cereus)=−1.00 × 10^−4(T0.5)+Yint
(§6) (3) Bacterial Survival=Smin+(Smax−Smin)/ (1+10^log(EC50)−log(PC)∗HS)
(§7) Assays were conducted under three different ionic strength (μ) buffer conditions in order to assess the effect salt concentration had on antibacterial effectiveness. The lowest ionic strength buffer used was 10 mM NaPO4, pH 7.4, which corresponded to 26 mM total ionic strength. […] Bacterial survival results were plotted against the log of the concentration of conjugate, peptide, or free drug. EC50 values for each assessed compound were calculated by fitting the survival data to equation 3, which models typical sigmoidal dose-response behavior using a variable Hill slope. An F test was used to assess statistical significance, with the alpha level set to 0.05.
The test system of data set [7] is E. coli (#25922). Description: microbe, parasite or virus in culture. Conditions: Escherichia coli, 3 h, pH 7.4, read-out: EC50 (95% confidence interval), E. coli, resazurin read-out, triplicate. In general terms: Alamar Blue is a resazurin reagent that responds to reducing activity.
Procedure: as §4
(§8) (1) log(CFU/mLE.coli)=−2.00 × 10^−4(T0.5)+Yint
as §6, §7
For data set [8], the system named is B. cereus (#11778). Put plainly: microbe, parasite or virus in culture. To be noted: Bacillus cereus, 3 h.
Procedure: as §4, §5, §6, §7
For data set [9], the system named is E. coli (#25922). To be noted: for EC50: read-out: EC50 (95% confidence interval), E. coli, resazurin read-out, triplicate.
Procedure: as §4, §8, §6, §7
Where [10] appears, read: read-out: EC50 (95% confidence interval), B. cereus, ionic strength μ2 = 111 mM (10 mM NaPO4 : cation-adjusted PBS 1:1, pH 7.4), 3 h at 30°C, resazurin read-out, triplicate, * = estimated, lower survival boundary set to 0.
[11] abbreviates: ionic strength μ1 = 26 mM (10 mM NaPO4, pH 7.4), 3 h incubation at 37°C.
[12] abbreviates: ionic strength μ2 = 111 mM (10 mM NaPO4 : cation-adjusted PBS 1:1, pH 7.4), 3 h at 37°C.
[13] abbreviates: ionic strength μ3 = 167 mM (cation-adjusted PBS, pH 7.4), 3 h at 37°C, * = estimated, lower survival boundary set to 0.

Here are results for five compounds from PMC4166900, “Covalent modification of a ten-residue cationic antimicrobial peptide with levofloxacin” (Frontiers in Chemistry, 2014).

Where two headings read alike, the source gives them in different places. Marks after values point to notes of the source that are not given here. Peptide text beside a SMILES is read from it. * marks the point of attachment. Levofloxacinoyl = C[C@H]1COc2c(N3CCN(C)CC3)c(F)cc3c(=O)c(C(=O)*)cn1c23

Regarding `C[C@H]1COc2c(N3CCN(C)CC3)c(F)cc3c(=O)c(C(=O)O)cn1c23` [LVFX, Levofloxacin], the “mean maximal DiSC(3)5 fluorescence relative to melittin (membrane depolarization)” value in the data set with B. cereus membranes [1] is listed as 2.5%; in the data set with E. coli membranes [2], 8.4%. Besides, in the data set with B. cereus membranes [3], the “SYTOX Green fluorescence increase relative to melittin (membrane perturbation)” value is listed as “No increase in fluorescence”. Besides, the “mean maximal SYTOX Green fluorescence relative to melittin (membrane perturbation)” value in the data set with E. coli membranes [4] is “No increase in fluorescence”. Further, the “D7.4 fold greater than P4LC” value in data set [5] (1-octanol / 10 mM NaPO4 pH 7.4, ratio of D7.4 values) was “about 4.5 fold”. Also, the EC50 in the data set on B. cereus (#11778) [6] (setting [10]) is 591 nM; in the data set with E. coli (#25922) [7] (setting [11]) it was 2.81 nM; in the data set on E. coli (#25922) [7] (setting [12]), 2.23 nM; in the data set with E. coli (#25922) [7] (setting [13]), 2.77 nM; in the data set on B. cereus (#11778) [8] (pH 7.4, read-out: EC50 (95% confidence interval)), 981 nM; with B. cereus (#11778) [8] (pH 7.4, read-out: EC50 (95% confidence interval), B. cereus, ionic strength μ1 = 26 mM (10 mM NaPO4, pH 7.4), 3 h incubation at 30°C, resazurin read-out, triplicate) it was 212 nM.

In the case of `CC[C@H](C)[C@H](N)C(=O)N[C@@H](CC(C)C)C(=O)N1CCC[C@H]1C(=O)N[C@@H](Cc1c[nH]c2ccccc12)C(=O)N[C@@H](CCCCN)C(=O)N[C@@H](Cc1c[nH]c2ccccc12)C(=O)N1CCC[C@H]1C(=O)N[C@@H](Cc1c[nH]c2ccccc12)C(=O)N[C@@H](Cc1c[nH]c2ccccc12)C(=O)N1CCC[C@H]1C(=O)N[C@@H](Cc1c[nH]c2ccccc12)C(=O)N[C@@H](CCCN=C(N)N)C(=O)N[C@@H](CCCN=C(N)N)C(N)=O` [indolicidin], the logD at 10 min in data set [5] amounted to 2.3.

Compound `C[C@H]1COc2c(N3CCN(C)CC3)c(F)cc3c(=O)c(C(=O)NCCCC[C@H](NC(=O)[C@H](CCCCNC(=O)c4cn5c6c(c(N7CCN(C)CC7)c(F)cc6c4=O)OC[C@@H]5C)NC(=O)[C@H](CCCNC(=N)N)NC(=O)[C@H](CCCNC(=N)N)NC(=O)[C@H](CO)NC(=O)[C@H](CO)NC(=O)[C@H](CCCNC(=N)N)NC(=O)[C@H](CCCNC(=N)N)NC(=O)CNC(=O)[C@H](CCCNC(=N)N)NC(=O)c4cn5c6c(c(N7CCN(C)CC7)c(F)cc6c4=O)OC[C@@H]5C)C(N)=O)cn1c23` [P4LC] (Levofloxacinoyl-RGRRSSRRK(Levofloxacinoyl)K(Levofloxacinoyl)-NH2) returned a logD at 10 min in [5] of -1.65. Moreover, the EC50 in the data set with E. coli (#25922) [9] (setting [11]) was 16.7 nM; in the data set on E. coli (#25922) [9] (setting [12]), 1710 nM; in the data set on E. coli (#25922) [9] (setting [13]), 1510 nM; in the data set with B. cereus (#11778) [6] (read-out: EC50 (95% confidence interval), B. cereus, ionic strength μ1 = 26 mM (10 mM NaPO4, pH 7.4), 3 h incubation at 30°C, resazurin read-out, triplicate) it was 21.8 nM; in the data set on B. cereus (#11778) [6] (setting [10]), 2170 nM; in the data set on B. cereus (#11778) [6] (read-out: EC50 (95% confidence interval), B. cereus, ionic strength μ3 = 167 mM (cation-adjusted PBS, pH 7.4), 3 h at 30°C, resazurin read-out, triplicate, * = estimated, lower survival boundary set to 0), 40000 nM.

`N=C(N)NCCC[C@H](NC(=O)CNC(=O)[C@@H](N)CCCNC(=N)N)C(=O)N[C@@H](CCCNC(=N)N)C(=O)N[C@@H](CO)C(=O)N[C@@H](CO)C(=O)N[C@@H](CCCNC(=N)N)C(=O)N[C@@H](CCCNC(=N)N)C(=O)N[C@@H](CCCCN)C(=O)N[C@@H](CCCCN)C(N)=O` [Pep-4] (H-RGRRSSRRKK-NH2) registered a logD at 10 min in data set [5] of -2.57. Besides, the “EC50 (95% confidence interval)” value with E. coli (#25922) [9] (#25922, 3 h, pH 7.4) was ~29.4 ^* (21.9–35.4)^* μM. The compound further came in with an EC50 with B. cereus (#11778) [6] (#11778, 3 h, pH 7.4) of 27.1 nM.

`CC[C@H](C)[C@H](NC(=O)CN)C(=O)NCC(=O)N[C@@H](C)C(=O)N[C@H](C(=O)N[C@@H](CC(C)C)C(=O)N[C@@H](CCCCN)C(=O)N[C@H](C(=O)N[C@@H](CC(C)C)C(=O)N[C@H](C(=O)N[C@H](C(=O)NCC(=O)N[C@@H](CC(C)C)C(=O)N1CCC[C@H]1C(=O)N[C@@H](C)C(=O)N[C@@H](CC(C)C)C(=O)N[C@H](C(=O)N[C@@H](CO)C(=O)N[C@@H](Cc1c[nH]c2ccccc12)C(=O)N[C@H](C(=O)N[C@@H](CCCCN)C(=O)N[C@@H](CCCNC(=N)N)C(=O)N[C@@H](CCCCN)C(=O)N[C@@H](CCCNC(=N)N)C(=O)N[C@@H](CCC(N)=O)C(=O)N[C@@H](CCC(N)=O)C(N)=O)[C@@H](C)CC)[C@@H](C)CC)[C@@H](C)O)[C@@H](C)O)C(C)C)C(C)C` [melittin, Melittin]: the log distribution coefficient (logD) at 10 min in data set [5] is -0.46.

As a reminder, the EC50 is the concentration at which the effect is half-maximal. As usually defined, the logD is lipophilicity at a set pH, counting ionised and neutral species.
